# Source: article PMC5706100 (Theranostics, 2017)
# Positions of bridges follow the written chain, without caps; N, C: chain ends. No end group written: not given here.
# Experiments:
# EAhy926 cells = test: Immunofluorescence staining of FITC-GEBP11 in hypoxia-treated cells; type: cell-based; settings: FITC-labelled peptide, after hypoxia treatment
# [1] = system: CD31-positive plaque neovascularization; test: Immunofluorescence of FITC-GEBP11 and CD31 in plaque tissue sections; design: species or system rabbit
sequence,measurement,setting,value
CTKNSYLMC (disulfide 1-9 (inferred)) [GEBP11 peptide],binding affinity to EAhy926 cells,EAhy926 cells,high binding affinity
same,cell selectivity by immunofluorescence staining,[1]; endothelial cells versus macrophages,selectively target endothelial cells rather than macrophages
same,co-localization with CD31 in plaque section,"[1]; rabbit plaque tissue sections, confocal microscopy",well co-localized with CD31-positive plaque neovascularization and vasa vasorum
